Assay results: patent publication US7868046B2, “(2R)-2-[(4-sulfonyl) aminophenyl] propanamides and pharmaceutical compositions containing them” (Dompe' Pha.r.ma S.p.A., priority 2006, dated 2011)

Columns and labels:
human PMNs [1] = test: CXCL8 induced human PMN chemotaxis inhibition; assay type: cell-based; details: hPMN chemotaxis, compound at 10^−7 M; for inhibition at 0.1 µM: Homo sapiens
Description: (§1) The compounds of the invention of formula (I) were evaluated in vitro for their ability to inhibit chemotaxis of polymorphonucleate leukocytes (hereinafter referred to as PMNs) and monocytes induced by the fractions of IL-8 and GRO-α. For this purpose, in order to isolate the PMNs from heparinized human blood, taken from healthy adult volunteers, mononucleates were removed by means of sedimentation on dextran (according to the procedure disclosed by W. J. Ming et al., J. Immunol., 138, 1469, 1987) and red blood cells by a hypotonic solution. The cell vitality was calculated by exclusion with Trypan blue, whilst the ratio of the circulating polymorphonucleates was estimated on the cytocentrifugate after staining with Diff Quick.
In the CXCL8 induced chemotaxis assay human recombinant CXCL8 (Pepro Tech) was used as stimulating agents in the chemotaxis experiments: the lyophilized protein was dissolved in a volume of HBSS containing 0.2% bovin serum albumin (BSA) so thus to obtain a stock solution having a concentration of 10^−5 M to be diluted in HBSS to a concentration of 10^−8 M, for the chemotaxis assays.
(§2) In the chemotaxis experiments, the PMNs were incubated with the compounds of the invention of formula (I) for 15′ at 37° C. in an atmosphere containing 5% CO2.
(§3) During the chemotaxis assay [W. Falket et al., J. Immunol. Methods, 33, 239, 1980] PVP-free filters with a porosity of 5 μm and microchambers suitable for replication were used.
(§4) The compounds of the invention in formula (I) were evaluated at a concentration ranging between 10^−6 and 10^−10 M; for this purpose they were added, at the same concentration, both to the lower pores and the upper pores of the microchamber. Evaluation of the ability of the compounds of the invention of formula (I) to inhibit the chemotaxis of human monocytes was carried out according to a disclosed method [Van Damme J. et al., Eur. J. Immunol., 19, 2367, 1989].

human PMNs [2] = test: CXCL1 (GRO-α) induced human PMN chemotaxis inhibition; assay type: cell-based; details: hPMN chemotaxis, compound at 10^−8 M; for inhibition at 0.01 µM: Homo sapiens
Description: as §1
GRO-α induced chemotaxis inhibition was evaluated in an analogous assay.
as §2, §3, §4

Compound	inhibition at 0.1 µM (human PMNs [1]) [%]	inhibition at 0.01 µM (human PMNs [2]) [%]	melting point [°C]	CXCL8 (% inhibition at 10^−7 M) (human PMNs [1]) [%]	CXCL1 (% inhibition at 10^−8 M) (human PMNs [2]) [%]
C[C@@H](C(N)=O)c1ccc(NS(=O)(=O)c2ccc(C(F)(F)F)cc2)cc1 [Compound 10, (2R)-2-(4-{[(4-(trifluoromethyl)phenyl]sulfonyl}amino)phenyl]propanamide]	15 ± 7	69 ± 5	178 to 180		
C[C@@H](C(N)=O)c1ccc(NS(=O)(=O)c2ccccc2Cl)cc1 [Compound 2, (2R)-2-{4-{[(2-chlorophenyl)sulfonyl]amino}phenyl)propanamide]	19 ± 5	41 ± 7			
CC(C)S(=O)(=O)Nc1ccc([C@@H](C)C(N)=O)cc1 [Compound 1, (2R)-2-{4-[(Isopropylsulfonyl]amino}phenyl)propanamide]	7 ± 18	67 ± 7	125 to 127		
COc1ccc(S(=O)(=O)Nc2ccc([C@@H](C)C(N)=O)cc2)cc1 [Compound 7, (2R)-2-{4-{[(4-methoxylphenyl)sulfonyl]amino}phenyl)propanamide]	9 ± 7	71 ± 11	118 to 120		
C[C@@H](C(N)=O)c1ccc(NS(=O)(=O)C(F)(F)F)cc1 [Compound 13, (2R)-2-(4-{[(trifluoromethyl)sulfonyl]amino}phenyl)propanamide]	24 ± 7	75 ± 11			
C[C@@H](C(N)=O)c1ccc(NS(=O)(=O)c2ccccc2)cc1 [Compound 5, (2R)-2-{4-[(phenylsulfonyl)amino]phenyl}propanamide]	15 ± 10	44 ± 9	152 to 153		
C[C@@H](C(N)=O)c1ccc(NS(=O)(=O)c2cccs2)cc1 [Compound 11, (2R)-2-{4-[(thien-2ylsulfonyl)amino]phenyl}propanamide]	17 ± 4	50 ± 2	58 to 60		
C[C@@H](C(=O)NCCOCCO)c1ccc(NS(=O)(=O)c2ccccc2Cl)cc1 [Compound 18, (2R)-2-{4-{[(2-chlorophenyl)sulfonyl]amino}phenyl)-N-[2-(2-hydroxyethoxy)ethyl]propanamide]	6 ± 7	59 ± 5			
C[C@@H](C(N)=O)c1ccc(NS(=O)(=O)c2c(Cl)cccc2Cl)cc1 [Compound 3, (2R)-2-{4-{[(2,6-dichlorophenyl)sulfonyl]amino}phenyl)propanamide]	14 ± 5	39 ± 10			
C[C@@H](C(=O)NC1CC1)c1ccc(NS(=O)(=O)c2ccccc2Cl)cc1 [Compound 19, (2R)-2-{4-{[(2-chlorophenyl)sulfonyl]amino}phenyl)-N-cyclopropylpropanamide]	19 ± 4	60 ± 8			
C[C@@H](C(N)=O)c1ccc(NS(=O)(=O)c2ccc(Cl)cc2)cc1 [Compound 9, (2R)-2-(4-{[(4-chlorophenyl)sulfonyl]amino}phenyl)propanamide]	20 ± 4	53 ± 12	150 to 153		
C[C@@H](C(N)=O)c1ccc(NS(=O)(=O)C2CCCC2)cc1 [Compound 12, (2R)-2-{4-[(cyclopentylsulfonyl)amino]phenyl}propanamide]	21 ± 10	67 ± 7			
C[C@@H](C(=O)Nc1nc(C(F)(F)F)cs1)c1ccc(NS(=O)(=O)c2ccccc2Cl)cc1 [Compound 17, (2R)-2-{4-{[(2-chlorophenyl)sulfonyl]amino}phenyl)-N-[4-(trifluoromethyl)-1,3-thiazol-2-yl]propanamide]	14 ± 11	40 ± 12			
C[C@@H](C(N)=O)c1ccc(NS(C)(=O)=O)cc1 [Compound 4, (2R)-2-{4-[(methylsulfonyl)amino]phenyl}propanamide]	10 ± 7	75 ± 7			
CC(C)S(=O)(=O)Nc1ccc([C@@H](C)C(=O)N[C@@H](C)C(N)=O)cc1 [Compound 15, (2R)—N-[(1S)-2-amino-1-methyl-2-oxoethyl]-2-{4-[(isopropylsulfonyl]amino}phenyl) propanamide]				10 ± 8	58 ± 2
CC(C)S(=O)(=O)Nc1ccc([C@@H](C)C(=O)Nc2nc(C(F)(F)F)cs2)cc1 [Compound 16, (2R)-2-{4-[(isopropylsulfonyl]amino}phenyl)-N-[4-(trifluoromethyl)-1,3-thiazol-2-yl]propanamide]	11 ± 7	49 ± 10			
CNC(=O)[C@H](C)c1ccc(NS(=O)(=O)C(C)C)cc1 [Compound 14, (2R)-2-{4-[(isopropylsulfonyl]amino}phenyl)-N-methylpropanamide]	8 ± 9	64 ± 8			
Cc1ccc(S(=O)(=O)Nc2ccc([C@@H](C)C(N)=O)cc2)cc1 [Compound 6, (2R)-2-{4-{[(4-methylphenyl)sulfonyl]amino}phenyl)propanamide]	12 ± 10	65 ± 4	138 to 140		
C[C@@H](C(N)=O)c1ccc(NS(=O)(=O)Cc2ccccc2)cc1 [Compound 8, (2R)-2-(4-[(benzylsulfonyl]amino}phenyl)propanamide]	14 ± 9	58 ± 6	68 to 70		
